Experimental data: PMC6321058, “Crystal Structures and Cytotoxicity of ent-Kaurane-Type Diterpenoids from Two Aspilia Species” (Molecules, 2018)

Key:
[1] = MTT cytotoxicity assay, BEAS-2B; format: cell-based; details: human, normal cell line BEAS-2B, 0.19–100 μM
Description: (§1) Reagent and cells. Adenocarcinomic human alveolar basal epithelial (A549) and human hepatoma (HepG2) cancer cell lines, immortalized normal human liver (LO2), human bronchial epithelial (BEAS-2B), and fibroblast-like CCD19Lu cells were purchased from [NT], Manassas, VA, USA). The cells were cultured in RPMI-1640 medium supplemented with 10% fetal bovine serum and antibiotics: Penicillin (50 U/Ml) and streptomycin (50 μg/mL; Invitrogen, Paisley, Scotland, UK). All cells were incubated at 37 °C in a 5% humidified CO2 incubator). All test compounds were dissolved in DMSO at a final concentration of 50 mM and stored at -20 °C before use. […] Briefly, 5 × 10^3 cells per well were seeded in 96-well plates before drug treatments. […] Cells without drug treatment were used as controls. Subsequently, 10 μL of 5 mg/mL MTT solution was added to each well and incubated at 37 °C for 4 h, followed by the addition of 100 μL solubilization buffer (12 mM HCl in a solution of 10% SDS) and overnight incubation. The absorbance, A570 nm, was then determined in each well on the next day. The percentage cell viability was calculated using the expression: % Viability = Atreated/ Acontrol × 100, and was given as cytotoxicity in Table 3.

[2] = MTT cytotoxicity assay, LO2; format: cell-based; details: human, normal cell line LO2, MTT, 0.19–100 μM
Description: as §1

[3] = MTT cytotoxicity assay, A549; format: cell-based; details: human, cancer cell line A549, MTT, 0.19–100 μM
Description: as §1

[4] = MTT cytotoxicity assay, Hep-G2; format: cell-based; details: human, cancer cell line Hep-G2, MTT, 0.19–100 μM
Description: as §1

[5] = BEAS-2B cells (human bronchial epithelial)
[6] = LO2 cells (immortalized normal human liver)

Row | Compound | IC50 at 72 h [1] | IC50 at 72 h [2] | IC50 at 72 h [3] | IC50 at 72 h [4] | melting point | IC50 at 72 h [1, 5] | IC50 at 72 h [2, 6] | IC50 at 72 h ([4]; HepG2 cells (human hepatoma))
1 | C=C1CC23CCC4C(C)(C(=O)O)CCCC4(C)C2=CC(OC)C1C3 (stereo not drawn) [Compound 1, 12α-methoxy-ent-kaur-9(11),16-dien-19-oic acid] | > 100 µM | > 100 µM | > 100 µM | 27.3 ± 1.9 µM | 184 to 186 °C | – | – | –
2 | C[C@@]12CCC[C@@](C)(C(=O)O)[C@H]1CC[C@@]13C[C@@H](CC[C@H]12)[C@](C)(O)C3 [Compound 2, (16R)-hydroxy-ent-kauran-19-oic acid] | > 100 µM | > 100 µM | > 100 µM | > 100 µM | – | – | – | –
3 | C=C1C2CCC3(O)C4(C)CCCC(C)(C(=O)O)C4CCC3(C2)C1OC(=O)C(C)=CC (stereo not drawn) [Compound 3, 9β-hydroxy-15α-angeloyloxy-ent-kaur-16-en-19-oic acid] | – | – | > 100 µM | – | – | 89.9 ± 2 µM | 57.2 ± 1.2 µM | 24.7 ± 2.8 µM
4 | C=C1C2CCC3(O)C4(C)CCCC(C)(C(=O)OC)C4CCC3(C2)C1OC(=O)C(C)=CC (stereo not drawn) [Compound 4, methyl-9β-hydroxy-15α-angeloyloxy-ent-kaur-16-en-19-oate] | – | – | > 100 µM | – | – | > 100 µM | > 100 µM | > 100 µM
5 | CC=C(C)C(=O)OC1C23CCC4C(C)(C(=O)O)CCCC4(C)C2CCC(C3)C12CO2 (stereo not drawn) [Compound 5, 15α-angeloyloxy-16β,17-epoxy-ent-kauran-19-oic acid] | – | – | 30.7 ± 1.7 µM | – | 242 to 243 °C | > 100 µM | > 100 µM | > 100 µM
6 | C=C1C[C@@]23CC[C@@H]4[C@](C)(C(=O)O)CCC[C@@]4(C)C2=CC[C@@H]1C3 [Compound 6, ent-kaur-9(11),16-dien-19-oic acid] | > 100 µM | > 100 µM | > 100 µM | > 100 µM | – | – | – | –
7 | CO[C@@]1(C)C[C@@]23CC[C@@H]4[C@](C)(C(=O)O)CCC[C@@]4(C)C2=CC[C@@H]1C3 [Compound 6a] | – | – | > 100 µM | – | – | > 100 µM | > 100 µM | > 100 µM
8 | C[C@@H]1C[C@@]23CC[C@@H]4[C@](C)(C(=O)O)CCC[C@@]4(C)C2=CC[C@@H]1C3 [Compound 6b, ent-kaur-9(11)-en-19-oic acid] | – | – | > 100 µM | – | – | > 100 µM | > 100 µM | > 100 µM
9 | C=C1C2CCC3C4(C)CCCC(C)(C(=O)O)C4CCC3(C2)C1OC(=O)C(C)=CC (stereo not drawn) [Compound 7, 15α-angeloyloxy-ent-kaur-16-en-19-oic acid] | – | – | > 100 µM | – | – | > 100 µM | > 100 µM | > 100 µM
10 | C=C1C[C@@]23CC[C@@H]4C(C)(C)CCC[C@@]4(C)C2=CC(=O)C1C3 [Compound 9, ent-kaur-9(11),16-dien-12-one] | – | – | > 100 µM | – | – | > 100 µM | 75.3 ± 2.8 µM | > 100 µM
11 | C=C1CC23CCC4C(C)(C(=O)OC)CCCC4(C)C2CCC1C3 (stereo not drawn) [Compound 10, methyl-ent-kaur-16-en-19-oate] | – | – | > 100 µM | – | – | > 100 µM | > 100 µM | > 100 µM
12 | C=C1CC23CCC4C(C)(C(=O)O)CCCC4(C)C2CCC1C3 (stereo not drawn) [Compound 11, ent-kaur-16-en-19-oic acid] | – | – | > 100 µM | – | – | > 100 µM | > 100 µM | > 100 µM
13 | CC[C@H](/C=C/[C@@H](C)[C@H]1CC[C@H]2[C@@H]3CC=C4C[C@@H](O)CC[C@]4(C)[C@H]3CC[C@]12C)C(C)C [Compound 14, stigmasta-5,22(E)-dien-3β-ol] | > 100 µM | > 100 µM | > 100 µM | > 100 µM | – | – | – | –
14 | C=C1C2CCC3C4(C)CCCC(C)(C(=O)OC)C4CCC3(C2)C1OC(=O)C(C)=CC (stereo not drawn) [Compound 17, methyl-15α-angeloyloxy-ent-kaur-16-en-19-oate] | – | – | > 100 µM | – | – | > 100 µM | > 100 µM | > 100 µM
15 | C=C1CC23CCC4C(C)(C(=O)O)CCCC4(C)C2=CC(=O)C1C3 (stereo not drawn) [Compound 18, 12-oxo-ent-kaur-9(11),16-dien-19-oic acid] | 38.6 ± 2.5 µM | 30 ± 1.7 µM | 80.5 ± 1.8 µM | 81.3 ± 0.3 µM | – | – | – | –
16 | CC(=O)O[C@H]1C(=O)[C@@]2(C)[C@H]([C@H](OC(=O)c3ccccc3)[C@]3(O)C[C@H](OC(=O)[C@H](O)[C@@H](NC(=O)c4ccccc4)c4ccccc4)C(C)=C1C3(C)C)[C@]1(OC(C)=O)CO[C@@H]1C[C@@H]2O [Paclitaxel, reference compound] | – | – | 0.0033 µM | – | – | < 0.1 µM | < 0.1 µM | 0.19 µM
